Where two headings read alike, the source gives them in different places.
Method: The contents of the IV bag were infused over a two hour period. […] Each patient was dosed on a 28 day cycle, comprising an infusion once a week for the first three weeks of the cycle on days 1, 8, and 15 of each cycle, with no dose administered in the week following the third dose.
[1] = Table V, 2 hour IV infusion, 0.66 mg/M^2
[2] = Table V, 2 hour IV infusion, 1.85 mg/M^2
[3] = Table V, 2 hour IV infusion, 2.59 mg/M^2
[4] = Table V, 2 hour IV infusion, 3.63 mg/M^2
[5] = Table V, 2 hour IV infusion, 3.7 mg/M^2
[6] = Table V, 2 hour IV infusion, 7.4 mg/M^2
[7] = Table V, 2 hour IV infusion, 14.8 mg/M^2
[8] = Table V, 2 hour IV infusion, 29.6 mg/M^2
[9] = Table V, 2 hour IV infusion, 41.4 mg/M^2
[10] = Table V, 2 hour IV infusion, […]^2
[11] = Table VI, 2 hour IV infusion, 1.85 mg/m^2, N 1
[12] = Table VI, 2 hour IV infusion, 3.7 mg/m^2, N 1
[13] = Table VI, 2 hour IV infusion, 7.4 mg/m^2, N 1
[14] = Table VI, 2 hour IV infusion, 14.8 mg/m^2, N 1
[15] = Table VI, 2 hour IV infusion, 29.6 mg/m^2, N 6
[16] = Table VI, 2 hour IV infusion, 41.4 mg/m^2, N 6
[17] = Table VI, 2 hour IV infusion, 50 mg/m^2, N 10
[18] = Table VI, 2 hour IV infusion, 58 mg/m^2, N 3
[19] = Table VII, 2 hour IV infusion, 1.85 mg/m^2, N 1
[20] = Table VII, 2 hour IV infusion, 3.7 mg/m^2, N 1
[21] = Table VII, 2 hour IV infusion, 7.4 mg/m^2, N 1
[22] = Table VII, 2 hour IV infusion, 14.8 mg/m^2, N 1
[23] = Table VII, 2 hour IV infusion, 29.6 mg/m^2, N 5
[24] = Table VII, 2 hour IV infusion, 41.4 mg/m^2, N 6
[25] = Table VII, 2 hour IV infusion, 50 mg/m^2, N 10
[26] = Table VII, 2 hour IV infusion, 58 mg/m^2, N 3
[27] = Table VIII cumulative data, Day 1, 2-hour IV infusion, 0.66 mg/m^2, N 1
[28] = Table VIII cumulative data, Day 1, 2-hour IV infusion, 1.32 mg/m^2, N 1
[29] = Table VIII cumulative data, Day 1, 2-hour IV infusion, 1.85 mg/m^2, N 5
[30] = Table VIII cumulative data, Day 1, 2-hour IV infusion, 1.85 mg/m^2, N = 4
[31] = Table VIII cumulative data, Day 1, 2-hour IV infusion, 2.59 mg/m^2, N 3
[32] = Table VIII cumulative data, Day 1, 2-hour IV infusion, 2.59 mg/m^2, N = 2
[33] = Table VIII cumulative data, Day 1, 2-hour IV infusion, 3.63 mg/m^2, N 7
[34] = Table VIII cumulative data, Day 1, 2-hour IV infusion, 3.63 mg/m^2, N = 6
[35] = Table VIII cumulative data, Day 1, 2-hour IV infusion, 3.7 mg/m^2, N 1
[36] = Table VIII cumulative data, Day 1, 2-hour IV infusion, 5.08 mg/m^2, N 3
[37] = Table VIII cumulative data, Day 1, 2-hour IV infusion, 7.11 mg/m^2, N 1
[38] = Table VIII cumulative data, Day 1, 2-hour IV infusion, 7.4 mg/m^2, N 1
[39] = Table VIII cumulative data, Day 1, 2-hour IV infusion, 14.8 mg/m^2, N 1
[40] = Table VIII cumulative data, Day 1, 2-hour IV infusion, 29.6 mg/m^2, N 6
[41] = Table VIII cumulative data, Day 1, 2-hour IV infusion, 29.6 mg/m^2, N = 5
[42] = Table VIII cumulative data, Day 1, 2-hour IV infusion, 41.4 mg/m^2, N 6
[43] = Table VIII cumulative data, Day 1, 2-hour IV infusion, 50 mg/m^2, N 10
[44] = Table VIII cumulative data, Day 1, 2-hour IV infusion, 58 mg/m^2, N 3
[45] = Table VIII cumulative data, Day 1, 2-hour IV infusion, […]^2, N 1

CCc1cnn2c(NCc3ccc[n+]([O-])c3)cc(N3CCCC[C@H]3CCO)nc12 [Formula II]
drug accumulation (1.85 mg/m^2 on days 1, 8, 15 of 28 day cycle): drug accumulation is not evident | dosage at which plasma levels of 25 nM (10 ng/mL) are available (2-hour infusions): greater than 1.32 mg/m^2 | AUC [1]: 32.1 ng·h/mL | CL [1]: 20.6 L/(hr m^2) | Cmax [1]: 18.6 ng/mL | t1/2 [1]: 1.48 h | Cmax (Table V, 2 hour IV infusion, 1.32 mg/M^2): 63.8 ng/mL | AUC [2]: 201.2 (38) ng hr/mL | CL [2]: 10.2 (36) L/(hr m^2) | Cmax [2]: 95.7 (26) ng/mL | t1/2 [2]: 2.29 (45) hours | AUC [3]: 213 (35) ng hr/mL | CL [3]: 12.9 (35) L/(hr m^2) | t1/2 [3]: 3.0 (1) hours | AUC [4]: 423 (91) ng hr/mL | CL [4]: 14.7 (91) L/(hr m^2) | Cmax [4]: 163 (63) ng/mL | t1/2 [4]: 2.56 (38) hours | AUC [5]: 336 ng·h/mL | CL [5]: 11.0 L/(hr m^2) | Cmax [5]: 136 ng/mL | t1/2 [5]: 2.75 h | AUC [6]: 972 ng·h/mL | CL [6]: 7.62 L/(hr m^2) | Cmax [6]: 353 ng/mL | t1/2 [6]: 2.86 h | AUC [7]: 1053 ng·h/mL | CL [7]: 14.1 L/(hr m^2) | Cmax [7]: 396 ng/mL | t1/2 [7]: 2.78 h | AUC [8]: 2434 (45) ng hr/mL | CL [8]: 14.0 (40) L/(hr m^2) | Cmax [8]: 890 (44) ng/mL | t1/2 [8]: 2.98 (11) hours | AUC [9]: 3041 (51) ng hr/mL | Cmax [9]: 1343 (48) ng/mL | t1/2 [9]: 2.80 (29) hours | CL [10]: 13.1 L/(hr m^2) | t1/2 [10]: 2.01 h | AUC(tf) Mean [11]: 134 ng·h/mL | Cmax Mean [11]: 62.5 ng/mL | Tmax Median [11]: 1 h | tf Median [11]: 8 h | AUC(tf) Mean [12]: 336 ng·h/mL | Cmax Mean [12]: 136 ng/mL | Tmax Median [12]: 2 h | tf Median [12]: 24 h | AUC(tf) Mean [13]: 970 ng·h/mL | Cmax Mean [13]: 353 ng/mL | Tmax Median [13]: 2 h | tf Median [13]: 24 h | AUC(tf) Mean [14]: 1050 ng·h/mL | Cmax Mean [14]: 396 ng/mL | Tmax Median [14]: 2 h | tf Median [14]: 24 h | AUC(tf) Mean [15]: 2040 ng·h/mL | Cmax Mean [15]: 890 ng/mL | Tmax Median [15]: 1 h | tf Median [15]: 24 h | AUC(tf) Mean [16]: 2870 ng·h/mL | Cmax Mean [16]: 1300 ng/mL | Tmax Median [16]: 2 h | tf Median [16]: 24 h | AUC(tf) Mean [17]: 4050 ng·h/mL | Cmax Mean [17]: 1820 ng/mL | Tmax Median [17]: 1.5 h | tf Median [17]: 24 h | AUC(tf) Mean [18]: 3290 ng·h/mL | Cmax Mean [18]: 1460 ng/mL | Tmax Median [18]: 1 h | tf Median [18]: 24 h | AUC(I) Mean [19]: 136 ng·h/mL | CL Mean [19]: 13.6 L/hr/m^2 | t½ Mean [19]: 1.42 h | AUC(I) Mean [20]: 336 ng·h/mL | CL Mean [20]: 11.0 L/hr/m^2 | t½ Mean [20]: 2.75 h | AUC(I) Mean [21]: 972 ng·h/mL | CL Mean [21]: 7.62 L/hr/m^2 | t½ Mean [21]: 2.86 h | AUC(I) Mean [22]: 1050 ng·h/mL | CL Mean [22]: 14.1 L/hr/m^2 | t½ Mean [22]: 2.78 h | AUC(I) Mean [23]: 2430 ng·h/mL | CL Mean [23]: 14.0 L/hr/m^2 | t½ Mean (Table VII, 2 hour IV infusion, 29.6 mg/m^2, n = 4): 2.98 h | AUC(I) Mean [24]: 2890 ng·h/mL | CL Mean [24]: 26.8 L/hr/m^2 | t½ Mean [24]: 2.84 h | AUC(I) Mean [25]: 4090 ng·h/mL | CL Mean [25]: 16.3 L/hr/m^2 | t½ Mean [25]: 2.90 h | AUC(I) Mean [26]: 3300 ng·h/mL | CL Mean [26]: 19.7 L/hr/m^2 | t½ Mean [26]: 3.15 h | AUC(I) Mean [27]: 32.1 ng·h/mL | CL Mean [27]: 20.6 L/hr/m^2 | Cmax Mean [27]: 18.6 ng/mL | Tmax Median [27]: 2 h | t½ Mean [27]: 1.48 h | Cmax Mean [28]: 63.8 ng/mL | Tmax Median [28]: 2 h | Cmax Mean [29]: 91.0 ng/mL | Tmax Median [29]: 2 h | AUC(I) Mean [30]: 201 ng·h/mL | CL Mean [30]: 10.2 L/hr/m^2 | t½ Mean [30]: 2.29 h | Cmax Mean [31]: 124 ng/mL | Tmax Median [31]: 1 h | AUC(I) Mean [32]: 213 ng·h/mL | CL Mean [32]: 12.9 L/hr/m^2 | t½ Mean [32]: 3.02 h | Cmax Mean [33]: 195 ng/mL | Tmax Median [33]: 1 h | AUC(I) Mean [34]: 446 ng·h/mL | CL Mean [34]: 11.3 L/hr/m^2 | t½ Mean [34]: 2.63 h | AUC(I) Mean [35]: 336 ng·h/mL | CL Mean [35]: 11.0 L/hr/m^2 | Cmax Mean [35]: 136 ng/mL | Tmax Median [35]: 2 h | t½ Mean [35]: 2.75 h | AUC(I) Mean [36]: 327 ng·h/mL | CL Mean [36]: 15.9 L/hr/m^2 | Cmax Mean [36]: 173 ng/mL | Tmax Median [36]: 2 h | t½ Mean [36]: 3.19 h | AUC(I) Mean [37]: 588 ng·h/mL | CL Mean [37]: 12.1 L/hr/m^2 | Cmax Mean [37]: 347 ng/mL | Tmax Median [37]: 1 h | t½ Mean [37]: 3.16 h | AUC(I) Mean [38]: 972 ng·h/mL | CL Mean [38]: 7.62 L/hr/m^2 | Cmax Mean [38]: 353 ng/mL | Tmax Median [38]: 2 h | t½ Mean [38]: 2.86 h | AUC(I) Mean [39]: 1050 ng·h/mL | CL Mean [39]: 14.1 L/hr/m^2 | Cmax Mean [39]: 396 ng/mL | Tmax Median [39]: 2 h | t½ Mean [39]: 2.78 h | Cmax Mean [40]: 890 ng/mL | Tmax Median [40]: 1 h | AUC(I) Mean [41]: 2430 ng·h/mL | CL Mean [41]: 14.0 L/hr/m^2 | t½ Mean [41]: 2.98 h | AUC(I) Mean [42]: 2890 ng·h/mL | CL Mean [42]: 26.8 L/hr/m^2 | Cmax Mean [42]: 1300 ng/mL | Tmax Median [42]: 2 h | t½ Mean [42]: 2.84 h | AUC(I) Mean [43]: 4090 ng·h/mL | CL Mean [43]: 16.3 L/hr/m^2 | Cmax Mean [43]: 1820 ng/mL | Tmax Median [43]: 1.5 h | t½ Mean [43]: 2.90 h | AUC(I) Mean [44]: 3300 ng·h/mL | CL Mean [44]: 19.7 L/hr/m^2 | Cmax Mean [44]: 1460 ng/mL | Tmax Median [44]: 1 h | t½ Mean [44]: 3.15 h | CL Mean [45]: 13.1 L/hr/m^2 | Tmax Median [45]: 1 h | t½ Mean [45]: 2.01 h | clearance versus dose (dosages of from […]^2 to 41.4 mg/m^2): clearance is dosage independent | exposure (AUC) versus dose (dosages of from […]^2 to 41.4 mg/m^2, day 1 and day 15): dose-proportional increases in exposure | AUC (two hour infusion, 3.7 mg/M^2): about 336 ng hr/mL | Cmax (two hour infusion, 3.7 mg/M^2): about 136 ng/ml | t1/2 (two hour infusion, 3.7 mg/M^2): about 2.75 hours | Cmax (two hour infusion, 7.4 mg/M^2): about 353 ng/ml | t1/2 (two hour infusion, 7.4 mg/M^2): about 2.86 hours | Cmax (two hour infusion, 14.8 mg/M^2): about 396 ng/ml | t1/2 (two hour infusion, 14.8 mg/M^2): about 2.78 hours | t1/2 (two hour infusion, 41.4 mg/M^2): about 2.8 hours | Cmax (two hour infusion, 50 mg/M^2): about 1820 ng/ml | t1/2 (two hour infusion, 50 mg/M^2): about 2.9 hours | Cmax (two hour infusion, 58 mg/M^2): about 1460 ng/ml | t1/2 (two hour infusion, 58 mg/M^2): about 3.2 hours
